row,Compound,melting point [°C]
1,COCC1CCCN1S(=O)(=O)c1ccc2c(c1)C1(OCCCO1)C(=O)N2 (stereo not drawn),127 to 128
2,c1ccc2cc(OC3CCC4(CCNCC4)CC3)ccc2c1,132 to 134
3,COC(=O)c1nc(N)ccc1Oc1nc(OC)cc(OC)n1,67 to 69
4,N#CCCNC(=O)c1ccnc(-c2cccc3nn(Cc4cccc(C(F)(F)F)c4)cc23)c1,147 to 148
5,N#CN=C(N)c1cc2c(Oc3ccc(Cl)cc3)cncc2s1,265 to 268
6,CS(=O)(=O)c1ccc(-c2sc(Cc3ccccc3)nc2-c2ccc(F)cc2)cc1,117 to 118
7,COc1cc(S(C)=O)ccc1-c1nc2ccc(C(C)(C)CNS(C)(=O)=O)cc2[nH]1 (stereo not drawn),126 to 128
8,O=C1Nc2ccccc2SC1CCCCO (stereo not drawn),101 to 102
9,COc1c(I)c(OC)c2ccccc2c1C(=O)OCc1ccccc1,80 to 83
10,C(=C\c1nc(COc2cccc(CCCn3ccnc3)c2)co1)/c1ccccc1,86 to 87
11,Cc1c(-c2ccccc2)oc2c(C(=O)OCC3CO3)cccc2c1=O (stereo not drawn),103 to 105
12,CCOC(=O)c1cc(=O)n(CCC(C(=O)NO)N(C)S(=O)(=O)c2ccc(Oc3ccccc3)cc2)c(=O)[nH]1 (stereo not drawn),159 to 160
13,COc1ccc(-c2coc(C(N)=O)cc2=O)cc1,262 to 263
14,O=C(O)C(=O)c1cc(F)ccc1NC(=O)c1ccc(-c2ccccc2)cc1,204 to 206
15,CC(C)(C)c1ccc(NC(=N)Nc2ccc(C(C)(C)C)cc2)cc1,161 to 162
16,CNC(=O)c1cnc(OCC(O)CNC(C)C)c(Cl)c1 (stereo not drawn),130 to 132
17,COc1ccc2c3c([nH]c2c1[N+](=O)[O-])C(=O)CC3,228
18,O=C(NCc1ccccn1)Nc1cc(NC(=O)c2ccccc2)ccn1,222 to 223
19,Nc1cccc(OCc2ccc3ccccc3n2)c1,98 to 99
20,O=c1cc(-c2ccncc2)nc2n1CCC(c1ccncc1)N2CC(O)c1cccc(Br)c1 (stereo not drawn),190 to 192
21,COc1ccc2cccc(N)c2c1,134 to 136
22,CCOC(=O)NN1CCc2ccccc2C(Oc2ccc(C(F)(F)F)cc2)C1 (stereo not drawn),156 to 157

row,Compound,melting point [°C]
1,Cc1cc(NC(=O)OC(C)(C)C)c([N+](=O)[O-])cc1C#Cc1ccccc1,161 to 164
2,COC1C(O)C(CO)OC1n1cnc2c(N)nc(N)nc21 (stereo not drawn),133 to 135
3,C[Si](C)(C)C#Cc1ccc2c(c1)C(=O)N(c1ccc3c(c1)C=C3)C2=O,192 to 193
4,S=C(SSC(=S)c1ccccc1)c1ccccc1,89 to 91
5,CCOC(=O)CNC(=O)CNCc1ccc(-c2cc3ncnc(Nc4ccc5[nH]ccc5c4)c3s2)cc1,98 to 115
6,COc1cc(NC(=S)C2(C)CCc3c(C)c(O)c(C)c(C)c3O2)cc(OC)c1OC (stereo not drawn),147 to 148
7,CC(C)(C)Sc1ssc(=S)c1Cl,45
8,COCC(NC(=O)OCc1ccccc1)C(=O)NCc1ccccc1 (stereo not drawn),112 to 114
9,O=[N+]([O-])c1cnccc1NCc1ccccc1,100 to 104
10,NC(=O)CCSSSSCCC(N)=O,127
11,Clc1c[nH]nc1-c1cc(Br)cc(Br)c1,188
12,O=C(Cc1ccncc1)c1ccc(F)cc1,90 to 91
13,Cc1ccc(CC2CCN(C(=O)C(=O)Nc3ccc4c(c3)OCC(=O)N4)CC2)cc1,228 to 231
14,CC(C)(C)OC(=O)N=C(N)N(Cc1ccc(OCCC2Oc3cc([N+](=O)[O-])ccc3N(Cc3cccc(Cl)c3)C2=O)cc1)C(=O)OC(C)(C)C (stereo not drawn),67.5
15,COc1ccccc1N1CCN(Cc2ccccc2C(c2ccc(O)cc2)c2ccc(O)cc2)CC1,175 to 178
16,CCn1c(COc2ccc(NC(=O)c3cc(F)cc(N4CCOCC4)c3)c3ccccc23)n[nH]c1=O,260
17,CCCCNc1c(C(C)=O)cnc2onc(C)c12,116 to 117
18,O=C(O)Cn1cc(Cc2nc3c(F)c(F)cc(F)c3s2)c2cccc(F)c21,194 to 196
19,COCS(=O)(=O)c1ccc(C=C(C)c2ccc3c(c2)C(C)(C)CCC3(C)C)cc1,154 to 156
20,CC(=O)OC1N=C(c2ccccc2Cl)c2c(cn(C)c2C)N(C)C1=O (stereo not drawn),202 to 204
21,C[C@@H]1Nc2ccc(-c3cc(F)cc(C#N)c3)cc2[C@](C)(c2ccccc2)O1,128 to 129
22,CNc1nc(NC)c2ncn(COC(CO)CO)c2n1,198

row,Compound,melting point [°C]
1,COc1ccc(-c2cccc3ccsc23)cc1,74 to 75
2,C=C(C)C(=O)NCCNC(=O)CCl,126 to 128
3,Cn1c(=O)n(Cc2ccc(C#N)cc2)c(=O)c2nc(-c3ccc(/C=C/C(=O)O)cc3)[nH]c21,> 300
4,CNC(=O)c1ncnc(C)c1NC(=O)c1cc(Cl)nn1-c1ncccc1Cl,205 to 207
5,c1ccc2c(c1)OCc1c(-c3nc(C4CC4)no3)ncn1-2,169 to 173
6,COc1ccc(CCN2CCC(=C3c4ccccc4CCn4ncnc43)CC2)cc1,129
7,CCOC(=O)C(=NO)c1ccc(Br)cc1,163 to 164
8,CCN(CC)C(=O)c1cc2ccccc2c(-c2ccc(Cl)cc2)n1,122
9,Cc1ccc(-c2cc(C(=O)O)nn2Cc2ccc(Cl)c(Cl)c2)cc1,172
10,COc1cc(Nc2c(C#N)cnc3cc(Br)ccc23)c(Cl)cc1C,215 to 217
11,O=C(c1cc2cc(OCc3ccccc3)ccc2[nH]1)C12CC3CC(CC(C3)C1)C2,189 to 191
12,Nc1cn2cc(Sc3ccccc3)ccc2n1,110 to 112
13,CN(C)CCCn1nnc(-c2ccc3c(c2)S(=O)(=O)c2ccccc2C3=O)n1,141 to 142
14,O=C(O)CCCCCCCCNS(=O)(=O)c1ccccc1,82 to 84
15,N#Cc1ccc(NC(=O)n2ccc3cc(Oc4cc(CC(N)=O)ncn4)ccc32)cc1C(F)(F)F,204 to 209
16,COP(=O)(OC)C(C)(C)O,75 to 77
17,OC(CCCN1CC=C(c2ccc(Cl)cc2)CC1)c1ccc(F)cc1 (stereo not drawn),103 to 105
18,CCCCCCC(=O)C=Cc1ccc(OCc2ccccc2)c(OC)c1,78 to 81
19,O=C(O)CNS(=O)(=O)c1cc2ccc(Cl)cc2cc1Cl,185 to 188
20,COCc1nc2c(OC)ccc(C(=O)Cc3ccncc3)c2[nH]1,218 to 220
21,O=Cc1cc2ccsc2s1,43 to 45
22,CCCCOc1c(CNC(=O)OC(C)(C)C)n(CC(C)C)c(=O)c2ccc(C(=O)OC)cc12,148 to 149

# More lines, now with the values ahead:
row,melting point [°C],Compound
1,176 to 178,O=[N+]([O-])c1sc2ccc(Cl)cc2c1Br
2,128 to 129,O=C(Nc1ccc(-n2nc(C(F)(F)F)cc2Cl)cc1)c1ccncc1F
3,154,CSc1ccc(-c2nn(Cc3ccc(Cl)cc3Cl)c(=S)cc2-c2ccc(F)cc2)cc1
4,178,NC(=O)C(Nc1ccc(Cl)cc1)c1c(Cl)cccc1Cl (stereo not drawn)
5,159 to 161,C=C(C)COc1cc(OC)cc(C(=O)OC)c1
6,213 to 214,COc1nc(NC(=O)NS(=O)(=O)c2ccccc2OC(F)F)nc(NC(C)(C)C)n1
7,158,C[C@H](NC(=O)OC(C)(C)C)C(=O)Oc1c[nH]c2ccccc12
8,166 to 167,CCCc1cc(OC)c(OC)cc1Cc1cnc(N)nc1N
9,250 to 251,CCn1c(=O)c2c(nc(/C=C/c3cccc(O)c3)n2C)n(CC)c1=O
10,123,CCOC(=O)c1ccccc1NCc1c(-c2ccccc2)nn(C)c1Cl
11,138,O=C(C=Cc1ccccc1)CC(=O)C=Cc1ccccc1
12,98 to 101,COc1cc(OCC(=O)N[C@@H]2CCN(Cc3ccccc3)C2)ccc1C=O
13,81 to 82,NCCCn1cnc(-c2ccc(F)cc2)c1-c1ccncc1
14,156 to 158,COc1ccccc1N1CCN(CCn2c(=O)c3sccc3n(C(C)=O)c2=O)CC1
15,69.5 to 71,CCSCC(=C1NCCCS1)[N+](=O)[O-]
16,121 to 123,O=C(NC(C(=O)O)c1ccc2c(c1)CCO2)OCc1ccccc1 (stereo not drawn)
17,81 to 82,O=C(O)C(O)c1ccc(Cc2ccccc2)s1 (stereo not drawn)
18,104 to 105,CCNC(=O)c1c([Si](C)(C)C)ccc(CF)c1Cl
19,180 to 185,C[C@@H](NC(=O)c1c[nH]c2ncc(-c3nccc4ccccc34)nc12)C(=O)N1CC(C#N)C1

row,melting point [°C],Compound
1,164,CC(C)(C)c1ccccc1N1CCN(C(=O)C2CCC(=O)N2Cc2ccccc2)CC1 (stereo not drawn)
2,148 to 150,C=CCn1c(-c2cccc(Cl)c2[N+](=O)[O-])nc2ccccc21
3,172,O=C(O)Cc1cccc2c(C3CCCC3)nccc12
4,105 to 107,CC(CN(C)C)CC(CNC(=O)N(CCCl)N=O)(c1ccccc1)c1ccccc1 (stereo not drawn)
5,120 to 121,Cc1ccc(-c2cnc(-c3cc(C(F)(F)F)cc(C(F)(F)F)c3)s2)s1
6,94 to 95,C=CCCCCCCCCc1nc2c(s1)NCCCC2
7,70,CC#CCOc1ccc(S(=O)(=O)NC(C(=O)NO)c2ccc(OCCN3CCCC3)cc2)cc1 (stereo not drawn)
8,176,CCOC(=O)Cc1cccc(N[C@@H](CCC(N)=O)C(=O)O)c1
9,50 to 58,CC(=CC(NC=O)C(=O)OCc1ccccc1)CP(=O)(OC(C)C)OC(C)C (stereo not drawn)
10,79 to 81,CCN(C(=O)C(C)CSC)c1sc(-c2cccnc2)nc1Cl (stereo not drawn)
11,90 to 92,O=C1C(CCO)Oc2ccc(Cl)cc2N1Cc1cccc(Cl)c1 (stereo not drawn)
12,83 to 85,COC(=O)c1sc(C#N)cc1[N+](=O)[O-]
13,248 to 250,Oc1ccc(Cl)cc1-n1c(=S)[nH]c2cc(C(F)(F)F)ccc21
14,63 to 65,O=C(c1ccccc1)c1cc(Cl)ccc1N=C=S
15,250,O=c1nc(-c2ccccn2)sc2cc(F)ccc12
16,147,OCC1OC(n2cnc3c(NCc4ccccc4)nc(Cl)nc32)CC1O (stereo not drawn)
17,200 to 204,COCc1c(N2CCN(C)CC2)c(F)cc2c(=O)c(C(=O)OC)cn(C3CC3)c12
18,95 to 97,COCCc1ccc(OCC(O)CNC2CCc3ccccc3C2)cc1 (stereo not drawn)
